Measurements as given in ChEMBL document CHEMBL5505979, “Novel aminothiazoximone-corbelled ethoxycarbonylpyrimidones with antibiofilm activity to conquer Gram-negative bacteria through potential multitargeting effects” (Eur J Med Chem, 2024).
In brackets after ≈: the same amount, converted by molar mass.

Legend:
Format in all cases: functional
Staphylococcus aureus [1] = experiment: Anti-bacterial activity against methicillin-resistant Staphylococcus aureus N315 assessed as inhibition of bacterial growth; conditions: Staphylococcus aureus, N315; read-out: MIC
Staphylococcus aureus [2] = experiment: Anti-bacterial activity against methicillin-resistant Staphylococcus aureus ATCC 43300 assessed as inhibition of bacterial growth; conditions: Staphylococcus aureus, ATCC 43300; read-out: MIC
Enterococcus faecalis = experiment: Anti-bacterial activity against Enterococcus faecalis V583 assessed as inhibition of bacterial growth
Klebsiella pneumoniae = experiment: Anti-bacterial activity against Klebsiella pneumoniae KPN325 assessed as inhibition of bacterial growth; conditions: Klebsiella pneumoniae, KPN325; read-out: MIC
Staphylococcus aureus [3] = experiment: Anti-bacterial activity against Staphylococcus aureus ATCC 1708 assessed as inhibition of bacterial growth; conditions: Staphylococcus aureus, ATCC 1708; read-out: MIC
Staphylococcus aureus [4] = experiment: Anti-bacterial activity against Staphylococcus aureus ATCC 25923 assessed as inhibition of bacterial growth; conditions: Staphylococcus aureus, ATCC 25923; read-out: MIC
Staphylococcus aureus [5] = experiment: Anti-bacterial activity against Staphylococcus aureus ATCC 29213 assessed as inhibition of bacterial growth; conditions: Staphylococcus aureus, ATCC 29213; read-out: MIC
Staphylococcus aureus [6] = experiment: Anti-bacterial activity against Staphylococcus aureus ATCC 12600 assessed as inhibition of bacterial growth; conditions: Staphylococcus aureus, ATCC 12600; read-out: MIC
Staphylococcus aureus [7] = experiment: Anti-bacterial activity against Staphylococcus aureus ATCC 6538 assessed as inhibition of bacterial growth
Staphylococcus aureus [8] = experiment: Anti-bacterial activity against Staphylococcus aureus CMCC (B) 26003 assessed as inhibition of bacterial growth
Staphylococcus aureus [9] = experiment: Anti-bacterial activity against Staphylococcus aureus CMCC (B) 26001 assessed as inhibition of bacterial growth
Escherichia coli [10] = experiment: Anti-bacterial activity against Escherichia coli JM109 assessed as inhibition of bacterial growth
Escherichia coli [11] = experiment: Anti-bacterial activity against Escherichia coli ATCC 25922 assessed as inhibition of bacterial growth
Pseudomonas aeruginosa [12] = experiment: Anti-bacterial activity against Pseudomonas aeruginosa ST235 assessed as inhibition of bacterial growth; conditions: Pseudomonas aeruginosa, ST235; read-out: MIC
Pseudomonas aeruginosa [13] = experiment: Anti-bacterial activity against Pseudomonas aeruginosa ATCC 27853 assessed as inhibition of bacterial growth; conditions: Pseudomonas aeruginosa, ATCC 27853; read-out: MIC
Pseudomonas aeruginosa [14] = experiment: Anti-bacterial activity against Pseudomonas aeruginosa ATCC 15442 assessed as inhibition of bacterial growth; conditions: Pseudomonas aeruginosa, ATCC 15442; read-out: MIC
Pseudomonas aeruginosa [15] = experiment: Anti-bacterial activity against Pseudomonas aeruginosa ATCC 9027 assessed as inhibition of bacterial growth
Pseudomonas aeruginosa [16] = experiment: Anti-bacterial activity against Pseudomonas aeruginosa CMCC (B) 10104 assessed as inhibition of bacterial growth; conditions: Pseudomonas aeruginosa, CMCC (B) 10104; read-out: MIC
Acinetobacter baumannii = experiment: Anti-bacterial activity against Acinetobacter baumannii R674 assessed as inhibition of bacterial growth
Candida albicans [17] = experiment: Anti-fungal activity against Candida albicans assessed as inhibition of fungal growth; conditions: Candida albicans; read-out: MIC
Candida albicans [18] = experiment: Anti-fungal activity against Candida albicans 90023 assessed as inhibition of fungal growth
Candida tropicalis = experiment: Anti-fungal activity against Candida tropicalis assessed as inhibition of fungal growth; conditions: Candida tropicalis; read-out: MIC
Candida parapsilosis = experiment: Anti-fungal activity against Candida parapsilosis assessed as inhibition of fungal growth; conditions: Lodderomyces parapsilosis; read-out: MIC

SMILES | MIC (Staphylococcus aureus [1]) [µM] | MIC (Staphylococcus aureus [2]) [µM] | MIC (Enterococcus faecalis) [µM] | MIC (Klebsiella pneumoniae) [µM] | MIC (Staphylococcus aureus [3]) [µM] | MIC (Staphylococcus aureus [4]) [µM] | MIC (Staphylococcus aureus [5]) [µM] | MIC (Staphylococcus aureus [6]) [µM] | MIC (Staphylococcus aureus [7]) [µM] | MIC (Staphylococcus aureus [8]) [µM] | MIC (Staphylococcus aureus [9]) [µM] | MIC (Escherichia coli [10]) [µM] | MIC (Escherichia coli [11]) [µM] | MIC (Pseudomonas aeruginosa [12]) [µM] | MIC (Pseudomonas aeruginosa [13]) [µM] | MIC (Pseudomonas aeruginosa [14]) [µM] | MIC (Pseudomonas aeruginosa [15]) [µM] | MIC (Pseudomonas aeruginosa [16]) [µM] | MIC (Acinetobacter baumannii) [µM] | MIC (Candida albicans [17]) [µM] | also measured
CCOC(=O)C1=C(CN2CCN(C(=O)/C(=N/OC)c3csc(N)n3)CC2)NC(=O)NC1c1ccc(Cl)cc1Cl (centres undefined) | 108 (≈ 64.4 µg/mL) | 27 (≈ 16.1 µg/mL) | 27 (≈ 16.1 µg/mL) | 108 (≈ 64.4 µg/mL) | 54 (≈ 32.2 µg/mL) | 54 (≈ 32.2 µg/mL) | 108 (≈ 64.4 µg/mL) | 54 (≈ 32.2 µg/mL) | 54 (≈ 32.2 µg/mL) | 108 (≈ 64.4 µg/mL) | 54 (≈ 32.2 µg/mL) | 108 (≈ 64.4 µg/mL) | 54 (≈ 32.2 µg/mL) | 54 (≈ 32.2 µg/mL) | 54 (≈ 32.2 µg/mL) | 54 (≈ 32.2 µg/mL) | 108 (≈ 64.4 µg/mL) | 54 (≈ 32.2 µg/mL) | 27 (≈ 16.1 µg/mL) | 449 (≈ 268 µg/mL) | MIC (Candida albicans [18]): 449 µM (≈ 268 µg/mL); MIC (Candida tropicalis): 449 µM (≈ 268 µg/mL); MIC (Candida parapsilosis): 449 µM (≈ 268 µg/mL)
CCOC(=O)C1=C(CN2CCN(C(=O)/C(=N/OC)c3csc(N)n3)CC2)NC(=O)NC1c1cccc(O)c1 (centres undefined) | 118 (≈ 64.1 µg/mL) | 59 (≈ 32.1 µg/mL) | 15 (≈ 8.15 µg/mL) | 59 (≈ 32.1 µg/mL) | 118 (≈ 64.1 µg/mL) | 118 (≈ 64.1 µg/mL) | 59 (≈ 32.1 µg/mL) | 15 (≈ 8.15 µg/mL) | 59 (≈ 32.1 µg/mL) | 236 (≈ 128 µg/mL) | 59 (≈ 32.1 µg/mL) | 59 (≈ 32.1 µg/mL) | 59 (≈ 32.1 µg/mL) | 59 (≈ 32.1 µg/mL) | 59 (≈ 32.1 µg/mL) | 59 (≈ 32.1 µg/mL) | 59 (≈ 32.1 µg/mL) | 117 (≈ 63.6 µg/mL) | 15 (≈ 8.15 µg/mL) | 430 (≈ 234 µg/mL) | MIC (Candida albicans [18]): 7 µM (≈ 3.81 µg/mL); MIC (Candida tropicalis): 430 µM (≈ 234 µg/mL); MIC (Candida parapsilosis): 430 µM (≈ 234 µg/mL)
CCOC(=O)C1=C(CN2CCN(C(=O)/C(=N/OC)c3csc(N)n3)CC2)NC(=O)NC1c1ccc(F)cc1 (centres undefined) | 117 (≈ 63.8 µg/mL) | 59 (≈ 32.2 µg/mL) | 29 (≈ 15.8 µg/mL) | 117 (≈ 63.8 µg/mL) | 117 (≈ 63.8 µg/mL) | 59 (≈ 32.2 µg/mL) | 59 (≈ 32.2 µg/mL) | 59 (≈ 32.2 µg/mL) | 117 (≈ 63.8 µg/mL) | 235 (≈ 128 µg/mL) | 59 (≈ 32.2 µg/mL) | 117 (≈ 63.8 µg/mL) | 59 (≈ 32.2 µg/mL) | 117 (≈ 63.8 µg/mL) | 117 (≈ 63.8 µg/mL) | 59 (≈ 32.2 µg/mL) | 117 (≈ 63.8 µg/mL) | 117 (≈ 63.8 µg/mL) | 59 (≈ 32.2 µg/mL) | 447 (≈ 244 µg/mL) | MIC (Candida albicans [18]): 6 µM (≈ 3.27 µg/mL); MIC (Candida tropicalis): 447 µM (≈ 244 µg/mL); MIC (Candida parapsilosis): 447 µM (≈ 244 µg/mL)
CCCCc1nc(Cl)c(C2NC(=O)NC(CN3CCN(CC(=O)c4ccccc4)CC3)=C2C(=O)OCC)[nH]1 (centres undefined) | 236 (≈ 128 µg/mL) | 59 (≈ 32 µg/mL) | 236 (≈ 128 µg/mL) | 236 (≈ 128 µg/mL) | 472 (≈ 256 µg/mL) | 59 (≈ 32 µg/mL) | 59 (≈ 32 µg/mL) | 236 (≈ 128 µg/mL) | 236 (≈ 128 µg/mL) | 472 (≈ 256 µg/mL) | 59 (≈ 32 µg/mL) | 118 (≈ 64.1 µg/mL) | 59 (≈ 32 µg/mL) | 118 (≈ 64.1 µg/mL) | 118 (≈ 64.1 µg/mL) | 118 (≈ 64.1 µg/mL) | 118 (≈ 64.1 µg/mL) | 118 (≈ 64.1 µg/mL) | 118 (≈ 64.1 µg/mL) | 472 (≈ 256 µg/mL) | MIC (Candida albicans [18]): 15 µM (≈ 8.15 µg/mL); MIC (Candida tropicalis): 472 µM (≈ 256 µg/mL); MIC (Candida parapsilosis): 472 µM (≈ 256 µg/mL)
CCCCc1nc(Cl)c(C2NC(=O)NC(CN3CCN(CC(=O)c4ccc(C)cc4)CC3)=C2C(=O)OCC)[nH]1 (centres undefined) | 230 (≈ 128 µg/mL) | 115 (≈ 64.1 µg/mL) | 58 (≈ 32.3 µg/mL) | 230 (≈ 128 µg/mL) | 460 (≈ 256 µg/mL) | 58 (≈ 32.3 µg/mL) | 58 (≈ 32.3 µg/mL) | 230 (≈ 128 µg/mL) | 230 (≈ 128 µg/mL) | 460 (≈ 256 µg/mL) | 58 (≈ 32.3 µg/mL) | 29 (≈ 16.2 µg/mL) | 115 (≈ 64.1 µg/mL) | 58 (≈ 32.3 µg/mL) | 230 (≈ 128 µg/mL) | 460 (≈ 256 µg/mL) | 29 (≈ 16.2 µg/mL) | 230 (≈ 128 µg/mL) | 115 (≈ 64.1 µg/mL) | 460 (≈ 256 µg/mL) | MIC (Candida albicans [18]): 230 µM (≈ 128 µg/mL); MIC (Candida tropicalis): 460 µM (≈ 256 µg/mL); MIC (Candida parapsilosis): 460 µM (≈ 256 µg/mL)
CCOC(=O)C1=C(CN2CCN(C(=O)/C(=N/OC)c3csc(N)n3)CC2)NC(=O)NC1c1ccc(O)c(OC)c1 (centres undefined) | 112 (≈ 64.2 µg/mL) | 28 (≈ 16.1 µg/mL) | 14 (≈ 8.03 µg/mL) | 48 (≈ 27.5 µg/mL) | 112 (≈ 64.2 µg/mL) | 56 (≈ 32.1 µg/mL) | 56 (≈ 32.1 µg/mL) | 112 (≈ 64.2 µg/mL) | 112 (≈ 64.2 µg/mL) | 112 (≈ 64.2 µg/mL) | 56 (≈ 32.1 µg/mL) | 95 (≈ 54.5 µg/mL) | 48 (≈ 27.5 µg/mL) | 48 (≈ 27.5 µg/mL) | 48 (≈ 27.5 µg/mL) | 48 (≈ 27.5 µg/mL) | 95 (≈ 54.5 µg/mL) | 95 (≈ 54.5 µg/mL) | 48 (≈ 27.5 µg/mL) | 444 (≈ 255 µg/mL) | MIC (Candida albicans [18]): 444 µM (≈ 255 µg/mL); MIC (Candida tropicalis): 444 µM (≈ 255 µg/mL); MIC (Candida parapsilosis): 444 µM (≈ 255 µg/mL)
CCOC(=O)C1=C(CN2CCN(C(=O)/C(=N/OC)c3csc(N)n3)CC2)NC(=O)NC1c1ccc(C(F)(F)F)cc1 (centres undefined) | 108 (≈ 64.3 µg/mL) | 27 (≈ 16.1 µg/mL) | 27 (≈ 16.1 µg/mL) | 108 (≈ 64.3 µg/mL) | 27 (≈ 16.1 µg/mL) | 27 (≈ 16.1 µg/mL) | 27 (≈ 16.1 µg/mL) | 27 (≈ 16.1 µg/mL) | 54 (≈ 32.2 µg/mL) | 108 (≈ 64.3 µg/mL) | 54 (≈ 32.2 µg/mL) | 27 (≈ 16.1 µg/mL) | 27 (≈ 16.1 µg/mL) | 54 (≈ 32.2 µg/mL) | 54 (≈ 32.2 µg/mL) | 54 (≈ 32.2 µg/mL) | 54 (≈ 32.2 µg/mL) | 27 (≈ 16.1 µg/mL) | 27 (≈ 16.1 µg/mL) | 430 (≈ 256 µg/mL) | MIC (Candida albicans [18]): 7 µM (≈ 4.17 µg/mL); MIC (Candida tropicalis): 430 µM (≈ 256 µg/mL); MIC (Candida parapsilosis): 430 µM (≈ 256 µg/mL)
CCOC(=O)C1=C(CN2CCN(C(=O)/C(=N/OC)c3csc(N)n3)CC2)NC(=O)NC1c1cccs1 (centres undefined) | 30 (≈ 16 µg/mL) | 30 (≈ 16 µg/mL) | 120 (≈ 64 µg/mL) | 240 (≈ 128 µg/mL) | 240 (≈ 128 µg/mL) | 240 (≈ 128 µg/mL) | 240 (≈ 128 µg/mL) | 240 (≈ 128 µg/mL) | 60 (≈ 32 µg/mL) | 240 (≈ 128 µg/mL) | 240 (≈ 128 µg/mL) | 240 (≈ 128 µg/mL) | 240 (≈ 128 µg/mL) | 480 (≈ 256 µg/mL) | 240 (≈ 128 µg/mL) | 60 (≈ 32 µg/mL) | 480 (≈ 256 µg/mL) | 240 (≈ 128 µg/mL) | 480 (≈ 256 µg/mL) | 480 (≈ 256 µg/mL) | MIC (Candida albicans [18]): 480 µM (≈ 256 µg/mL); MIC (Candida tropicalis): 480 µM (≈ 256 µg/mL); MIC (Candida parapsilosis): 480 µM (≈ 256 µg/mL)
